17 molecules from ChEMBL document CHEMBL4354827, “Discovery of Novel, Potent, Brain-Permeable, and Orally Efficacious Positive Allosteric Modulator of α7 Nicotinic Acetylcholine Receptor [4-(5-(4-Chlorophenyl)-4-methyl-2-propionylthiophen-3-yl)benzenesulfonamide]: Structure-Activity Relationship and Preclinical Characterization” (J Med Chem, 2020) can be followed below.

One may read the Cmax as the peak of the concentration-time curve. For orientation: bioavailability means dose-corrected exposure relative to a reference, in per cent. For orientation: Tmax means the time from dosing to the highest level. The term clearance denotes the rate of elimination divided by the concentration. The AUC(0-t) is exposure summed from dosing to a finite time, without extrapolation to infinity. The term half-life denotes the time needed for the level to fall by half in the phase considered.

Data set [1] concerns the target Neuronal acetylcholine receptor subunit alpha-7 (Homo sapiens, UniProt P36544). The data set is described as follows: Positive allosteric modulatory activity against alpha7 nAChR in human IMR-32 cells assessed as potentiation of PNU-282987-induced Ca2+ […] at 1 uM by FLIPR assay relative to control. Type of data set: cell-based.
Data set [2] is described as follows: Cmax in Beagle dog at 1 mg/kg, iv after 0.083 to 144 hrs by LC-MS/MS analysis. The data set is classed as ADME, organism-based, Canis lupus familiaris. More on the design: dose 1 mg/kg, route intravenous. Conditions: in vivo.
Data set [3] in a line: Cmax in Beagle dog at 10 mg/kg, po after 0.25 to 144 hrs by LC-MS/MS analysis. The data set is classed as ADME, organism-based, Canis lupus familiaris. Details: dose 10 mg/kg, route oral. Conditions: in vivo.
Data set [4] can be described thus: Cmax in Wistar rat at 10 mg/kg, po after 0.25 to 144 hrs by LC-MS/MS analysis. The note with it: in vivo. More on the design: dose 10 mg/kg, route oral. Type of data set: ADME, organism-based.
Data set [5] is described as follows: Protein binding in human plasma at 5 uM incubated for 16 hrs under shaking condition by LC/MS/MS based rapid equilibrium dialysis method. The data set is classed as ADME, cell-free. The note with it: read-out: PPB (converted).
Data set [6] can be described thus: Protein binding in rat plasma at 5 uM incubated for 16 hrs under shaking condition by LC/MS/MS based rapid equilibrium dialysis method. Type of data set: ADME, cell-free. Conditions: read-out: PPB (converted).
The nature of data set [7]: Oral bioavailability in Beagle dog at 10 mg/kg after 0.25 to 144 hrs by LC-MS/MS analysis. The data set is classed as ADME, organism-based, Canis lupus familiaris. The note with it: in vivo.
The nature of data set [8]: Drug metabolism in mouse liver microsomes assessed as metabolic rate at 1 uM preincubated for 5 mins followed by NADPH addition after 30 mins by LC-MS/MS analysis. The note with it: 0.5 h. Type of data set: ADME, Microsome. (Liver microsomes are a subcellular fraction often used to study metabolism.)
Data set [9] in a line: Tmax in Beagle dog at 1 mg/kg, iv after 0.083 to 144 hrs by LC-MS/MS analysis. The data set is classed as ADME, organism-based, Canis lupus familiaris. The note with it: in vivo.
Data set [10] can be described thus: Clearance in Beagle dog at 1 mg/kg, iv after 0.083 to 144 hrs by LC-MS/MS analysis. The note with it: Beagle, in vivo. The data set is classed as ADME, organism-based, Canis lupus familiaris.
Data set [11] is described as follows: Tmax in Beagle dog at 10 mg/kg, po after 0.25 to 144 hrs by LC-MS/MS analysis. Type of data set: ADME, organism-based, Canis lupus familiaris. The note with it: in vivo.
The nature of data set [12]: Metabolic stability in monkey liver microsomes assessed as compound remaining at 1 uM preincubated for 5 mins followed by NADPH addition and measured after 30 mins by LC-MS/MS analysis. The data set is classed as ADME, Macaca mulatta, Microsome. Conditions: rhesus monkey, read-out: Stability.
Data set [13] is described as follows: AUC (0 to 144 hrs) in Wistar rat at 1 mg/kg, iv after 0.083 to 144 hrs by LC-MS/MS analysis. Conditions: in vivo. Details: time < 144 hr, dose 1 mg/kg, route intravenous. The data set is classed as ADME, organism-based.
The nature of data set [14]: Volume of distribution at steady state in Beagle dog at 1 mg/kg, iv after 0.083 to 144 hrs by LC-MS/MS analysis. The note with it: in vivo, read-out: Vdss. The data set is classed as ADME, organism-based, Canis lupus familiaris.
Data set [15] is described as follows: Drug metabolism in dog liver microsomes assessed as metabolic rate at 1 uM preincubated for 5 mins followed by NADPH addition after 30 mins by LC-MS/MS analysis. The note with it: 0.5 h. The data set is classed as ADME, Canis lupus familiaris, Microsome.
The nature of data set [16]: Drug metabolism in human pooled liver microsomes assessed as metabolic rate at 1 uM preincubated for 5 mins followed by NADPH addition after 30 mins by LC-MS/MS analysis. The data set is classed as ADME, Microsome. Conditions: 0.5 h.
A short description of data set [17]: Drug metabolism in monkey liver microsomes assessed as metabolic rate at 1 uM preincubated for 5 mins followed by NADPH addition after 30 mins by LC-MS/MS analysis. Type of data set: ADME, Macaca mulatta, Microsome. Conditions: rhesus monkey, 0.5 h.
Data set [18] is described as follows: AUC (0 to 144 hrs) in Wistar rat at 10 mg/kg, po after 0.25 to 144 hrs by LC-MS/MS analysis. The note with it: in vivo. The data set is classed as ADME, organism-based. Details: dose 10 mg/kg, time < 144 hr, route oral.
The nature of data set [19]: Tmax in Wistar rat at 1 mg/kg, iv after 0.083 to 144 hrs by LC-MS/MS analysis. The data set is classed as ADME, organism-based. Conditions: in vivo.
A short description of data set [20]: AUClast in Beagle dog at 10 mg/kg, po after 0.25 to 144 hrs by LC-MS/MS analysis. Type of data set: ADME, organism-based, Canis lupus familiaris. More on the design: time upper 144 hr, dose 10 mg/kg, time lower 0.25 hr, route oral. Conditions: in vivo.
Data set [21] is described as follows: Metabolic stability in human pooled liver microsomes assessed as compound remaining at 1 uM preincubated for 5 mins followed by NADPH addition and measured after 30 mins by LC-MS/MS analysis. Conditions: read-out: Stability. The data set is classed as ADME, Microsome.
Data set [22] can be described thus: Metabolic stability in rat liver microsomes assessed as compound remaining at 1 uM preincubated for 5 mins followed by NADPH addition and measured after 30 mins by LC-MS/MS analysis. The data set is classed as ADME, Microsome. Conditions: read-out: Stability.
Data set [23] in a line: Half life in Wistar rat at 1 mg/kg, iv after 0.083 to 144 hrs by LC-MS/MS analysis. Type of data set: ADME, organism-based. Conditions: in vivo.
The nature of data set [24]: AUClast in Beagle dog at 1 mg/kg, iv after 0.083 to 144 hrs by LC-MS/MS analysis. Details: dose 1 mg/kg, time 0.083-144 hr, route intravenous. Type of data set: ADME, organism-based, Canis lupus familiaris. Conditions: in vivo.
Data set [25] in a line: Clearance in Wistar rat at 1 mg/kg, iv after 0.083 to 144 hrs by LC-MS/MS analysis. Conditions: Wistar, in vivo. Type of data set: ADME, organism-based.
Data set [26] can be described thus: Volume of distribution at steady state in Wistar rat at 1 mg/kg, iv after 0.083 to 144 hrs by LC-MS/MS analysis. The data set is classed as ADME, organism-based. Conditions: in vivo, read-out: Vdss.
Data set [27] in a line: Metabolic stability in dog liver microsomes assessed as compound remaining at 1 uM preincubated for 5 mins followed by NADPH addition and measured after 30 mins by LC-MS/MS analysis. The data set is classed as ADME, Canis lupus familiaris, Microsome. The note with it: read-out: Stability.
The nature of data set [28]: Metabolic stability in mouse liver microsomes assessed as compound remaining at 1 uM preincubated for 5 mins followed by NADPH addition and measured after 30 mins by LC-MS/MS analysis. The data set is classed as ADME, Microsome. The note with it: read-out: Stability.
Data set [29] is described as follows: Cmax in Wistar rat at 1 mg/kg, iv after 0.083 to 144 hrs by LC-MS/MS analysis. The data set is classed as ADME, organism-based. Details: dose 1 mg/kg, route intravenous. The note with it: in vivo.
Data set [30] is described as follows: Drug metabolism in rat liver microsomes assessed as metabolic rate at 1 uM preincubated for 5 mins followed by NADPH addition after 30 mins by LC-MS/MS analysis. Type of data set: ADME, Microsome. The note with it: 0.5 h.
Data set [31] in a line: Oral bioavailability in Wistar rat at 10 mg/kg after 0.25 to 144 hrs by LC-MS/MS analysis. The data set is classed as ADME, organism-based. The note with it: in vivo.
Data set [32] is described as follows: Tmax in Wistar rat at 10 mg/kg, po after 0.25 to 144 hrs by LC-MS/MS analysis. Type of data set: ADME, organism-based. The note with it: in vivo.
A short description of data set [33]: Half life in Beagle dog at 1 mg/kg, iv after 0.083 to 144 hrs by LC-MS/MS analysis. Type of data set: ADME, organism-based, Canis lupus familiaris. The note with it: in vivo.

Neuronal acetylcholine receptor subunit alpha-7, sequence (P36544 whole entry): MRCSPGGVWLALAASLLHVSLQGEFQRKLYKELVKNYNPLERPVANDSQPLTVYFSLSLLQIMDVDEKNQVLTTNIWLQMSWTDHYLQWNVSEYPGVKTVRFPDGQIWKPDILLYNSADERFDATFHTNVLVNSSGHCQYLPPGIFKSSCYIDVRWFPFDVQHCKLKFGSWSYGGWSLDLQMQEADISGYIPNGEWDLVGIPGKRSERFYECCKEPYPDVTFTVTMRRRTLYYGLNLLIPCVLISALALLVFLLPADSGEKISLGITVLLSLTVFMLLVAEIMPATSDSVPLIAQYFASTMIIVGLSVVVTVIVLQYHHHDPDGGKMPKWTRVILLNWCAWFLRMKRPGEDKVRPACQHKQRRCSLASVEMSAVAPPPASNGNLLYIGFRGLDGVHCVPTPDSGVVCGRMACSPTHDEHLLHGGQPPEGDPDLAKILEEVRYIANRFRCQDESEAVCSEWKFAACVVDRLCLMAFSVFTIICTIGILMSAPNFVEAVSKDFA

As to `CCC(=O)c1sc(-c2ccccc2)c(C)c1-c1ccc(S(N)(=O)=O)cc1`, the fold change (FC) in [1] was 2.4.
For the molecule `CCC(=O)c1sc(-c2ccc(C(F)(F)F)cc2)c(C)c1-c1ccc(S(N)(=O)=O)cc1`, the fold change (FC) in [1] worked out at 15.3.
On the same count and under the same terms, in the case of `CC(=O)c1sc(-c2ccc(Cl)cc2)c(C)c1-c1ccc(S(N)(=O)=O)cc1` it was 7; in that of `CCC(=O)c1sc(-c2ccncc2)c(C)c1-c1ccc(S(N)(=O)=O)cc1`, 1; in that of `CCC(=O)c1sc(-c2ccc(C3CC3)cc2)c(C)c1-c1ccc(S(N)(=O)=O)cc1`, 7.
The same measure, in the same setting: to `CCOc1ccc(-c2sc(C(=O)CC)c(-c3ccc(S(N)(=O)=O)cc3)c2C)cc1` belongs 6; to `Cc1c(-c2ccc(Cl)cc2)sc(C(=O)N(C)C)c1-c1ccc(S(N)(=O)=O)cc1`, 1.
Take `CCC(=O)c1sc(-c2ccc(C(C)(C)C)cc2)c(C)c1-c1ccc(S(N)(=O)=O)cc1`: the fold change (FC) in data set [1] was 1.
On the same count and under the same terms, to `CCC(=O)c1sc(-c2ccc(N(C)C)cc2)c(C)c1-c1ccc(S(N)(=O)=O)cc1` belongs 19; to `Cc1c(-c2ccc(Cl)cc2)sc(C(=O)N2CCCCC2)c1-c1ccc(S(N)(=O)=O)cc1`, 1; to `CCC(=O)c1sc(-c2ccc(F)cc2)c(C)c1-c1ccc(S(N)(=O)=O)cc1`, 8.7.
As for `CCC(=O)c1sc(-c2ccoc2)c(C)c1-c1ccc(S(N)(=O)=O)cc1`, the fold change (FC) in data set [1] is 1.
Take `CCC(=O)c1sc(-c2ccc(Cl)cc2Cl)c(C)c1-c1ccc(S(N)(=O)=O)cc1`: in [1], the fold change (FC) was 12.
`CCC(=O)c1sc(-c2cccc(Cl)c2)c(C)c1-c1ccc(S(N)(=O)=O)cc1`: the fold change (FC) in data set [1] was 1.
Take `CCC(=O)c1sc(-c2ccc(OC)cc2)c(C)c1-c1ccc(S(N)(=O)=O)cc1`: the Cmax in data set [2] was 2300 nM; in [3] it was 400 nM; in data set [4], 3000 nM; in data set [29] it was 900 nM. The fraction unbound at 16 h, 5 µM in [5] is 0.002; in data set [6] it was 0.003. Also, the bioavailability worked out at 4% in [7] and 63% in [31]. Further, the Drug metabolism is listed as 0.03 nmol/min/mg in data set [8]; 0.02 nmol/min/mg in data set [15]; 0.03 nmol/min/mg in [16]; 0.05 nmol/min/mg in [17]; 0.01 nmol/min/mg in data set [30]. In addition, the Tmax is 15 min in data set [9], 1.17 h in data set [11], 4.8 min in data set [19] and 2 h in data set [32]. Moreover, the clearance in [10] worked out at 12 mL/min/kg; in data set [25], 31 mL/min/kg. Further, the remaining at 0.5 h, 1 µM in [12] is 67%; in data set [21] it was 81%; in data set [22], 97%; in data set [27], 84%; in data set [28], 78%. Besides, the results for the AUC(0-t) at 144 h in data set [13] and in [18] were 1.3 µM·h and 8.2 µM·h, respectively. Moreover, the Vd in data set [14] was determined as 2 L/kg; in data set [26] it was 3 L/kg. The AUC(0-t) is 1.3 µM·h in [20] and 3.2 µM·h in [24]. The values for the half-life in data set [23] and in data set [33] were 84 min and 120 min, respectively. Besides, the fold change (FC) in [1] worked out at 22.
As to `CCCN(CCO)C(=O)c1sc(-c2ccc(Cl)cc2)c(C)c1-c1ccc(S(N)(=O)=O)cc1`, in [1], the fold change (FC) turned out to be 1.
Still for that read-out and setting: to `CCC(=O)c1sc(-c2ccccc2Cl)c(C)c1-c1ccc(S(N)(=O)=O)cc1` belongs 1.
